Reference: ChEMBL document CHEMBL1909046, “DrugMatrix in vitro pharmacology data”

Experiments:
[1] = target: Beta-2 adrenergic receptor (Homo sapiens, UniProt P07550); assay: DRUGMATRIX: Adrenergic beta2 radioligand binding (ligand: [3H] CGP-12177); format: cell membranes, Membrane; conditions: cho; Not Active = under 50% inhibition at 10 µM
[2] = target: Prostaglandin G/H synthase 1 (Homo sapiens, UniProt P23219); assay: biochemical; format: tissue-based, Platelet; conditions: platelet;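 note: inhibition of COX-1 enzyme activity, with arachidonic acid supplied as substrate; in other assays of this panel Not Active means under 50% inhibition at 10 µM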
Sequence of Prostaglandin G/H synthase 1 (P23219 whole entry): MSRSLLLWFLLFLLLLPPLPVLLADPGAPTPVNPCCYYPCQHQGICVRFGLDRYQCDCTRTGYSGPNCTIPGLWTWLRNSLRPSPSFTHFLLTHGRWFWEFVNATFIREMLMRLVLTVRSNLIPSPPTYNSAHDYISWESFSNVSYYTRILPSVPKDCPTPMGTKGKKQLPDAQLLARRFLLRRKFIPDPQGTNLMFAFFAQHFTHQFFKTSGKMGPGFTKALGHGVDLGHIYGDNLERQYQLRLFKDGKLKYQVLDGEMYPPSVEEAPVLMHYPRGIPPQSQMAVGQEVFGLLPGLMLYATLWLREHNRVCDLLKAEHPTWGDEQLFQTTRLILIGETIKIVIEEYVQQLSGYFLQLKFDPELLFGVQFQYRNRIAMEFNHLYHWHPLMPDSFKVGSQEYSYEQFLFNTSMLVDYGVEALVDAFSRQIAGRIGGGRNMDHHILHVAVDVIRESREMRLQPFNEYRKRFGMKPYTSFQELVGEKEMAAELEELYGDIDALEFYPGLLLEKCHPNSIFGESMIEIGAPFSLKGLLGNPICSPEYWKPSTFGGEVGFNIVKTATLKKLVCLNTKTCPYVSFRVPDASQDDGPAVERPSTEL

Calcitonin receptor = target: T1, Calcitonin receptor (Homo sapiens, UniProt P30988); format: cell membranes, Membrane; conditions: t47d; note: in other assays of this panel Not Active means under 50% inhibition at 10 µM
T1 sequence (P30988 whole entry): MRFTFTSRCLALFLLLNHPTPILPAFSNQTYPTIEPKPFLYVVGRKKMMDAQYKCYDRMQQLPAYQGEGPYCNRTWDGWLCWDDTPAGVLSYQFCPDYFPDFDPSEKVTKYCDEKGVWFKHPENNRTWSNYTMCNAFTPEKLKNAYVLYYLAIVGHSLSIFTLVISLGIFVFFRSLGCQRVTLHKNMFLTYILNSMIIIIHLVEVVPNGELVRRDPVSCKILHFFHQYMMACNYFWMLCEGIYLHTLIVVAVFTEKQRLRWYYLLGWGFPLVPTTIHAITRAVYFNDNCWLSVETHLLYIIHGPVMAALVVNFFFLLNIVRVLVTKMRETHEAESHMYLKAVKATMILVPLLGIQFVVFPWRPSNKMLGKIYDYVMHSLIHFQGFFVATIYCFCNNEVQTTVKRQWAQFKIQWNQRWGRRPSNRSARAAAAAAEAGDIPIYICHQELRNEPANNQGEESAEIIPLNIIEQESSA

[3] = target: Receptor tyrosine-protein kinase erbB-2 (Homo sapiens, UniProt P04626); assay: biochemical; format: cell-based, Insect cells; conditions: insect cells;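 note: inhibition of HER2 kinase enzyme activity, measured with Poly(Glu:Tyr) as the phosphorylation substrate; in other assays of this panel Not Active means under 50% inhibition at 10 µM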
Sequence of Receptor tyrosine-protein kinase erbB-2 (P04626 whole entry): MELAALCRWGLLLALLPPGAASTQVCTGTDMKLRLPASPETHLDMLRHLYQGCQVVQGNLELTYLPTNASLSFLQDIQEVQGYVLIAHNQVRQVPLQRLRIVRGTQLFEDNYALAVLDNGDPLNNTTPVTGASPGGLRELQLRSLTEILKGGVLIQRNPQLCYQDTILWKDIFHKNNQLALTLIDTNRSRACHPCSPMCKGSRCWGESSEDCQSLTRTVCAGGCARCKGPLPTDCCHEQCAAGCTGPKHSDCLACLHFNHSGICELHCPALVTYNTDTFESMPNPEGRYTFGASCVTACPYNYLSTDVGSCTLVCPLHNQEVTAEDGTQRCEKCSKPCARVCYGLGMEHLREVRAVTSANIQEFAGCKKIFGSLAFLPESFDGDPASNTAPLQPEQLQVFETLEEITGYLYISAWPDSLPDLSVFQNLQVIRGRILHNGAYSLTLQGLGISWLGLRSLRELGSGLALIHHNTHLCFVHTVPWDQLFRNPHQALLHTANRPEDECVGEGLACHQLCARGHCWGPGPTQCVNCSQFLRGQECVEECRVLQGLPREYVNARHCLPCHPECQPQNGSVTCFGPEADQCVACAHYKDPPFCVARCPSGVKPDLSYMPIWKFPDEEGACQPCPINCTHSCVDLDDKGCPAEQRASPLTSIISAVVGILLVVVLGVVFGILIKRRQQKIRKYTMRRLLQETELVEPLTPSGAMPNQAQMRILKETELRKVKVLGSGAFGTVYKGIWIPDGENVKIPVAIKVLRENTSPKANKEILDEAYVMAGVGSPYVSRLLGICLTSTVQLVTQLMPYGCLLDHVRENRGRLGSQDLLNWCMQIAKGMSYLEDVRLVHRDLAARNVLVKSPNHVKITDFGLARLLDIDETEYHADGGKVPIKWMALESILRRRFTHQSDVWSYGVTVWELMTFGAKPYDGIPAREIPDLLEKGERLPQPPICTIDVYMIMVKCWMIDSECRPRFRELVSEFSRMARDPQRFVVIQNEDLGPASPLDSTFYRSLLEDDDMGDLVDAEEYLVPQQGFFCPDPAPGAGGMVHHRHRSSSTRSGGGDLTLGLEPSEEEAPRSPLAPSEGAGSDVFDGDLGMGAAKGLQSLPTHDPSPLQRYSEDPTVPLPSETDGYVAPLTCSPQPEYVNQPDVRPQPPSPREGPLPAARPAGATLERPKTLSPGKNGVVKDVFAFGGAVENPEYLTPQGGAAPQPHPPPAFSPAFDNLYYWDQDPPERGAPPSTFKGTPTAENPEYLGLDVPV

[4] = target: Beta-1 adrenergic receptor (Homo sapiens, UniProt P08588); assay: DRUGMATRIX: Adrenergic beta1 radioligand binding (ligand: [125I] Cyanopindolol); format: cell membranes, CHO-K1, Membrane; conditions: cho-k1; Not Active = under 50% inhibition at 10 µM
Sequence of Beta-1 adrenergic receptor (P08588 whole entry): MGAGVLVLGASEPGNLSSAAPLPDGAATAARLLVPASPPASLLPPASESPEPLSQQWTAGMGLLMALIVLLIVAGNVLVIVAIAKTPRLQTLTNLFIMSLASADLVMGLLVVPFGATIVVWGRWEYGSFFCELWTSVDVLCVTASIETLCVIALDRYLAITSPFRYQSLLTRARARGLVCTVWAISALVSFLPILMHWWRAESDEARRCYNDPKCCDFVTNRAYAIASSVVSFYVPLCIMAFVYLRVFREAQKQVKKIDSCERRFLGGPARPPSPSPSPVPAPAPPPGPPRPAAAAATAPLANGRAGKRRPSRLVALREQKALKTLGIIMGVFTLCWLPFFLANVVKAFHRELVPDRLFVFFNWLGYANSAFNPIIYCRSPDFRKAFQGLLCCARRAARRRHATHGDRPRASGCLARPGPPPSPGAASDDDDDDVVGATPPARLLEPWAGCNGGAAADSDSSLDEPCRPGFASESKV

[5] = target: Protein kinase C alpha type (Homo sapiens, UniProt P17252); format: cell-based; conditions: sf9;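 note: inhibition of PKCalpha kinase activity measured in an enzyme assay with histone as the phosphorylation substrate; in other assays of this panel Not Active means under 50% inhibition at 10 µM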
[6] = target: Vascular endothelial growth factor receptor 1 (Homo sapiens, UniProt P17948); format: cell-based; conditions: huvec; note: in other assays of this panel Not Active means under 50% inhibition at 10 µM
Sequence of Vascular endothelial growth factor receptor 1 (P17948 whole entry): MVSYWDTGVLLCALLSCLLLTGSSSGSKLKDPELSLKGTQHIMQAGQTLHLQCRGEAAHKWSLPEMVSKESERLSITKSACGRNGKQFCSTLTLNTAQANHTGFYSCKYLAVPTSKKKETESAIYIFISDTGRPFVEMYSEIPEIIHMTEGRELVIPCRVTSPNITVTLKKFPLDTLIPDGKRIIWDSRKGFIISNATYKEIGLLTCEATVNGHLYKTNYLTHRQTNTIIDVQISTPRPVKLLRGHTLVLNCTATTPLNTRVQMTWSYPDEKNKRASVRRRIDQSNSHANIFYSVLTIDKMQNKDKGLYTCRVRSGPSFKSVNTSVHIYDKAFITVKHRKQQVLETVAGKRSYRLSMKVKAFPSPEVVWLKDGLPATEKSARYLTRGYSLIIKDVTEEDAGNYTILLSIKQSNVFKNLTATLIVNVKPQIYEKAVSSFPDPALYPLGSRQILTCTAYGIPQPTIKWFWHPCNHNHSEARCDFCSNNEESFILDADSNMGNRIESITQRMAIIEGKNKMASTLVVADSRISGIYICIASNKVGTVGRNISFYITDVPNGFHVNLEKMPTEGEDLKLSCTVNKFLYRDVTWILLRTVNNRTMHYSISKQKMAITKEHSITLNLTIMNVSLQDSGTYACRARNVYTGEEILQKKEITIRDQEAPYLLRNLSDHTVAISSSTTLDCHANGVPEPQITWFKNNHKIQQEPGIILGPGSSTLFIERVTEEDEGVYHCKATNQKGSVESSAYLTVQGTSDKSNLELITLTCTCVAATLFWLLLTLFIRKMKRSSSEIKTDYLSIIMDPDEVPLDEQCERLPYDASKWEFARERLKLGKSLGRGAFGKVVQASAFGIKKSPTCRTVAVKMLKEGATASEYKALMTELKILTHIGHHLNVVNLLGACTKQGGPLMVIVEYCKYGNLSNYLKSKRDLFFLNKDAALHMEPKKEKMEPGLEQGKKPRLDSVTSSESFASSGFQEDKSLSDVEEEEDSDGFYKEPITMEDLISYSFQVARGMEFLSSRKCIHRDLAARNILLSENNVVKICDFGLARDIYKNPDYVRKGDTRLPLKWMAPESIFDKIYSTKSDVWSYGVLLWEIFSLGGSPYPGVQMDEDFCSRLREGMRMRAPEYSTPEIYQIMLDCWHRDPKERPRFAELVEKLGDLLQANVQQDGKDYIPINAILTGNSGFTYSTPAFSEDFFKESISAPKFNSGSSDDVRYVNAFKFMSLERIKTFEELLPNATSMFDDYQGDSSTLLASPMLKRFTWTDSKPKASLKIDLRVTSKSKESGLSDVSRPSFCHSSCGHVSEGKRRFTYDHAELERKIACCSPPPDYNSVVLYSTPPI

Substance-K receptor = target: T2, Substance-K receptor (Homo sapiens, UniProt P21452); format: cell membranes, CHO, Membrane; conditions: cho; note: in other assays of this panel Not Active means under 50% inhibition at 10 µM
T2 sequence (P21452 whole entry): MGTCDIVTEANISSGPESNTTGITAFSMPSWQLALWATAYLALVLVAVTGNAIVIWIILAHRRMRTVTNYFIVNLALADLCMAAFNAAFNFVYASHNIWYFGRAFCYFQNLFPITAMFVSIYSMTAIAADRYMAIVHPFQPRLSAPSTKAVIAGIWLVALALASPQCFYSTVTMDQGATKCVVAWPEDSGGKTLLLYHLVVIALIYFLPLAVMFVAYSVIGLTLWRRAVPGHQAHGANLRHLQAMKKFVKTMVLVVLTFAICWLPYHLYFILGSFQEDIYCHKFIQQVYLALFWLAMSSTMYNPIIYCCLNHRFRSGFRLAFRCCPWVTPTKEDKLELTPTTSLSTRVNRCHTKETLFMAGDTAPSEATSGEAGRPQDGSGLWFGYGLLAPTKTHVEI

Measured: IC50

Sequence of Beta-2 adrenergic receptor (P07550 whole entry): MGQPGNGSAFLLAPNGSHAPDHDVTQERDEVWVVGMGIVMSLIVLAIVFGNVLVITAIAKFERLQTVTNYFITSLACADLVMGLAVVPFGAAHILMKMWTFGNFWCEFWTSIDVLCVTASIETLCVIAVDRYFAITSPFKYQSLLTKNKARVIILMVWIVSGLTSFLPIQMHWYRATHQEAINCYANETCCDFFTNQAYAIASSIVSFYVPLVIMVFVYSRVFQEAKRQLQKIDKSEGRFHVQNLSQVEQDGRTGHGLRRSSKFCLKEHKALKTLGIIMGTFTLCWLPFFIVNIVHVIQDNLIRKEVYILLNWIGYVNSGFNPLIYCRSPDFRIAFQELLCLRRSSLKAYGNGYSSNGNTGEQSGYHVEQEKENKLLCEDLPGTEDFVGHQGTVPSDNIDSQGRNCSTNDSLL

Cc1cc(=O)n(-c2ccccc2)n1C [ANTIPYRINE]
Not Active: all assays above

CN1C(=O)COc2c(C(=O)NC3CN4CCC3CC4)cc(Cl)cc21 (stereo not drawn) [AZASETRON]
Not Active: all assays above

C[C@H]1C[C@H]2[C@@H]3CCC4=CC(=O)C=C[C@]4(C)[C@@]3(Cl)[C@@H](O)C[C@]2(C)[C@@]1(O)C(=O)CO [BECLOMETHASONE]
Not Active: all assays above

CCOC(=O)[C@H](CCc1ccccc1)N[C@H]1CCc2ccccc2N(CC(=O)O)C1=O [BENAZEPRIL]
Not Active: all assays above

CCCCN1CCCCC1C(=O)Nc1c(C)cccc1C.Cl (stereo not drawn) [BUPIVACAINE HYDROCHLORIDE]
Not Active: all assays above

O=C1CC2(CCCC2)CC(=O)N1CCCCN1CCN(c2ncccn2)CC1 [BUSPIRONE]
Not Active: all assays above

C[C@@]12C(=O)OC(=O)[C@]1(C)[C@H]1CC[C@@H]2O1 [CANTHARIDIN]
Not Active: all assays above

O=NN(CCCl)C(=O)NCCCl [CARMUSTINE]
Not Active: all assays above

CC1=C(C(=O)O)N2C(=O)[C@@H](NC(=O)[C@H](N)c3ccccc3)[C@H]2SC1 [CEPHALEXIN ANHYDROUS]
Not Active: all assays above

O=C(N[C@H](CO)[C@H](O)c1ccc([N+](=O)[O-])cc1)C(Cl)Cl [CHLORAMPHENICOL]
Not Active: all assays above

ClC(Cl)Cl [CHLOROFORM]
Not Active: all assays above

C=C1CC[C@H](O)C/C1=C/C=C1\CCC[C@]2(C)[C@@H]([C@H](C)CCCC(C)C)CC[C@@H]12 [CHOLECALCIFEROL]
Not Active: all assays above

C[N+](C)(C)CCO.[Cl-] [CHOLINE CHLORIDE]
Not Active: all assays above

CCOC(=O)C(C)(C)Oc1ccc(Cl)cc1 [CLOFIBRATE]
Not Active: all assays above

CC(=O)OCC(=O)[C@@]1(O)CC[C@H]2[C@@H]3CCC4=CC(=O)CC[C@]4(C)[C@H]3C(=O)C[C@@]21C [CORTISONE ACETATE]
Not Active: all assays above

O=c1ccc2ccccc2o1 [COUMARIN]
Not Active: all assays above

C[C@@H]1C[C@@H]([C@H](O)CC2CC(=O)NC(=O)C2)C(=O)[C@@H](C)C1 [CYCLOHEXIMIDE]
Not Active: all assays above

CN(C)/N=N/c1[nH]cnc1C(N)=O [DACARBAZINE]
Not Active: all assays above

COc1ccc2c(c1)[C@]13CCCC[C@@H]1[C@H](C2)N(C)CC3 [DEXTROMETHORPHAN]
Not Active: all assays above

CC(=O)Nc1c(I)c(NC(C)=O)c(I)c(C(=O)O)c1I [DIATRIZOIC ACID]
Not Active: all assays above

COP(=O)(OC)OC=C(Cl)Cl [DICHLORVOS]
Not Active: all assays above
